Source: patent US11679107B2 (Eisai R&D Management Co., Ltd., priority 2018, dated 2023)
Like-named read-outs stand apart in the source and are kept apart here.

What was measured:
[1] = system: Ad2 variant pre-mRNAs spliced in HeLa S3 nuclear extracts; test: In vitro splicing assay (IVS), RT-qPCR of spliced product; type: biochemical; settings: for IC50: geometric mean; for Ratio Ad2.1/2.2: ratio of IVS IC50 Ad2.1 to Ad2.2
Outline: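 Ad2 variant pre-mRNA (2 ng) with FTZΔi control RNA in HeLa S3 nuclear extract (8 μg) was pre-incubated with compound or DMSO for 15 min at 30 °C. Splicing ran 90 min at 30 °C after adding 0.5 mM ATP, creatine phosphate and MgCl2. Spliced product was quantified by TaqMan RT-qPCR, normalized to DMSO, and curve-fitted.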

SF3b complexes = target: T1, SF3b complexes (Homo sapiens, UniProt O75533+Q7RTV0); test: Scintillation proximity assay (SPA) with [3H]-labelled pladienolide probe; type: binding; settings: SF3B1 (WT); geometric mean; read-out: SPA-ATS GMean IC50 (nM) SF3B1 (WT)
T1 construct: endogenous in cells; host or cells: Nuclear extracts; A HeLa S3 extract preparation is described for the in vitro splicing assay
Outline: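 SF3b complexes captured from nuclear extracts on anti-SF3B1 antibody SPA beads; test compounds pre-incubated 30 min before 2.5 nM [3H]-pladienolide probe added, then 30 min incubation. Bound probe read by scintillation; values from non-linear regression of concentration–response curves.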

[2] = system: NCI-H1568 cells (high MCL1); test: Cell proliferation and viability, CellTiter-Glo, 72 hours; type: cell-based; settings: for GI50: geometric mean
Outline: (§1)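 Cells grown in RPMI-1640 with 10% FBS (Panc line with added insulin and FBS to 15%) were exposed to an 11-point half-log dilution series, typically 10 μM-100 pM, at 0.1% final DMSO. After incubation at 37° C, 5% CO2, ATP content was measured by luminescence and normalized to a time-zero plate and DMSO wells.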

[3] = system: Panc 05.04 cells (SF3b K700E mutant); test: as above; type: cell-based; settings: for GI50: geometric mean
Outline: as §1

[4] = Ad2.1 pre-mRNA substrate, read-out: qPCR-IVS-ATS GMean IC50 (nM) Ad2.1
[5] = Ad2.2 pre-mRNA substrate, read-out: qPCR-IVS-ATS GMean IC50 (nM) Ad2.2
[6] = NCI-H1568, read-out: CTGlo-ATS GMean GI50 (nM) 72 h NCIH1568.1, NCIH1568.1 cells, 72 h
[7] = NCIH1568.1 cells, 72 h, −100% cidal, 0% static, 100% maximal growth
[8] = PANC0504.1 cells, 72 h, −100% cidal, 0% static, 100% maximal growth
[9] = Panc 05.04, read-out: CTGlo-ATS GMean GI50 (nM) 72 h PANC0504.1, PANC0504.1 cells, 72 h
[10] = NCI-H1568, 72 h, read-out: CTGlo-ATS GMean GI50 (nM) 72 h NCIH1568.1, NCIH1568.1 cells, 72 h
[11] = Panc 05.04, 72 h, read-out: CTGlo-ATS GMean GI50 (nM) 72 h PANC0504.1, PANC0504.1 cells, 72 h
[12] = 72 h, NCIH1568.1, -100% = cidal, 0% = static, 100% = uninhibited growth
[13] = NCI-H1568, 72 h, read-out: CTGlo-ATS GMean GI50 (nM) 72 h NCIH1568.1, 72 h, NCIH1568.1
[14] = 72 h, PANC0504.1, -100% = cidal, 0% = static, 100% = uninhibited growth
[15] = Panc 05.04, 72 h, read-out: CTGlo-ATS GMean GI50 (nM) 72 h PANC0504.1, 72 h, PANC0504.1
[16] = NCI-H1568, read-out: CTGlo-ATS GMean GI50 (nM) 72 h NCIH1568.1, 72 h, NCIH1568.1
[17] = Panc 05.04, read-out: CTGlo-ATS GMean GI50 (nM) 72 h PANC0504.1, 72 h, PANC0504.1

Row | Structure (SMILES) | IC50 [1, 4] | IC50 [1, 5] | IC50 (SF3b complexes) | GI50 [2, 6] | CTGlo-ATS Mean MinResponse % 72 h NCIH1568.1 [2, 7] | CTGlo-ATS Mean MinResponse % 72 h PANC0504.1 [3, 8] | GI50 [3, 9] | GI50 [2, 10] | GI50 [3, 11] | Ratio Ad2.1/2.2 [1] | CTGlo-ATS Mean MinResponse % 72 h NCIH1568.1 [2, 12] | GI50 [2, 13] | CTGlo-ATS Mean MinResponse % 72 h PANC0504.1 [3, 14] | GI50 [3, 15] | GI50 [2, 16] | GI50 [3, 17]
1 | C/C(=C\c1cc(F)cc(N2CCOCC2)c1)[C@H]1OC(=O)C[C@H](O)CC[C@H](C)[C@@H](OC(=O)N2CCN(CC(F)(F)F)CC2)/C=C/[C@@H]1C [Compound 92, [(2S,3S,4E,6R,7S,10R)-2-[(E)-1-(3-fluoro-5-morpholin-4-ylphenyl)prop-1-en-2-yl]-10-hydroxy-3,7-dimethyl-12-oxo-1-oxacyclododec-4-en-6-yl] 4-(2,2,2-trifluoroethyl)piperazine-1-carboxylate] | > 25000 nM | 664 nM | 80 nM | 401 nM | −3.918% | −37.359% | 433 nM |  |  |  |  |  |  |  |  | 
2 | C/C(=C\c1cc(F)cc(N2CCNC2=O)c1)[C@H]1OC(=O)C[C@H](O)CC[C@H](C)[C@@H](OC(=O)N2CCN(C)CC2)/C=C/[C@@H]1C [Compound 64] | 116 nM | 24.4 nM | 3.08 nM | 6.5 nM | −66.274% | −92.050% | 7.96 nM |  |  |  |  |  |  |  |  | 
3 | C/C(=C\c1cc(F)cc(N2CCOCC2)c1)[C@H]1OC(=O)C[C@H](O)CC[C@H](C)[C@@H](OC(=O)N(C)C2CCN(C)CC2)/C=C/[C@@H]1C [Compound 22] | 876 nM | 38.8 nM | 5.76 nM | 12.8 nM | −69.453% | −84.195% | 11.6 nM |  |  |  |  |  |  |  |  | 
4 | C/C(=C\c1cc(F)cc(N2CCO[C@@H](C)C2)c1)[C@H]1OC(=O)C[C@H](O)CC[C@H](C)[C@@H](OC(=O)N2CCN(C)CC2)/C=C/[C@@H]1C [Compound 69] | 36.7 nM | 20.9 nM | 3.83 nM |  | −76.018% | −86.274% |  | 4.04 nM | 7.48 nM |  |  |  |  |  |  | 
5 | C/C(=C\c1cc(F)cc(N2CCN(C(=O)c3cn(C)cn3)CC2)c1)[C@H]1OC(=O)C[C@H](O)CC[C@H](C)[C@@H](OC(=O)N2CCN(C)CC2)/C=C/[C@@H]1C [Compound 120] | 25.3 nM | 26.5 nM | 3.97 nM |  | −75.164% | −78.098% |  | 11.2 nM | 9.42 nM |  |  |  |  |  |  | 
6 | C/C(=C\c1cc(F)cc(N2CCOCC2)c1)[C@H]1OC(=O)C[C@@H](O)CC[C@@](C)(O)[C@@H](OC(=O)N2CCC(N3CCCCC3)CC2)/C=C/[C@@H]1C [Compound 63] | 18800 nM | 52 nM | 12.3 nM | 39.3 nM | −50.769% | −96.440% | 41.2 nM |  |  |  |  |  |  |  |  | 
7 | C/C(=C\c1cccc(COC(=O)N(C)C)c1)[C@H]1OC(=O)C[C@H](O)CC[C@H](C)[C@@H](OC(=O)N2CCN(C)CC2)/C=C/[C@@H]1C [Compound 258, [(2S,3S,4E,6R,7S,10R)-2-[(E)-1-[3-(dimethylcarbamoyloxymethyl)phenyl]prop-1-en-2-yl]-10-hydroxy-3,7-dimethyl-12-oxo-1-oxacyclododec-4-en-6-yl] 4-methylpiperazine-1-carboxylate] | > 25000 nM | 73.8 nM | 11.7 nM |  |  |  |  |  |  | 338.606 | −12.669% | 29.8 nM | −65.918% | 28.7 nM |  | 
8 | C/C(=C\c1cccc(S(=O)(=O)NC(C)C)c1)[C@H]1OC(=O)CC(O)CCC(C)[C@@H](OC(=O)N2CCN(C)CC2)/C=C/[C@@H]1C (stereo in doubt) [Compound 209, [(2S,3S,4E,6R,7R,10S)-10-hydroxy-3,7-dimethyl-12-oxo-2-[(E)-1-[3-(propan-2-ylsulfamoyl)phenyl]prop-1-en-2-yl]-1-oxacyclododec-4-en-6-yl] 4-methylpiperazine-1-carboxylate] | 3130 nM | 30 nM | 4.78 nM |  |  |  |  |  |  | 104.297 | −51.998% |  | −93.368% |  | 12.1 nM | 16.4 nM
9 | CNC(=O)Cn1ncc2c(F)cc(/C=C(\C)[C@H]3OC(=O)C[C@H](O)CC[C@H](C)[C@@H](OC(=O)N4CCN(C)CC4)/C=C/[C@@H]3C)cc21 [Compound 128] | 3350 nM | 18.1 nM | 8.76 nM | 25.7 nM | −62.651% | −96.227% | 44.2 nM |  |  |  |  |  |  |  |  | 
10 | C/C(=C\c1cc(F)cc(N2CC[C@@H](F)C2)c1)[C@H]1OC(=O)C[C@H](O)CC[C@H](C)[C@@H](OC(=O)N2CCN(C)CC2)/C=C/[C@@H]1C [Compound 14] | 584 nM | 54.7 nM | 2.72 nM |  | −65.049% | −91.489% |  | 14.1 nM | 19.6 nM |  |  |  |  |  |  | 
11 | C/C(=C\c1cc(F)cc(NS(=O)(=O)N(C)C)c1)[C@H]1OC(=O)C[C@H](O)CC[C@H](C)[C@@H](OC(=O)N2CCN(C)CC2)/C=C/[C@@H]1C [Compound 248, [(2S,3S,4E,6R,7S,10R)-2-[(E)-1-[3-(dimethylsulfamoylamino)-5-fluorophenyl]prop-1-en-2-yl]-10-hydroxy-3,7-dimethyl-12-oxo-1-oxacyclododec-4-en-6-yl] 4-methylpiperazine-1-carboxylate] | > 25000 nM | 76.4 nM | 6.62 nM |  |  |  |  |  |  | 327.274 | −46.753% |  | −92.622% |  | 97 nM | 75.8 nM
12 | C/C(=C\c1cc(F)c2cnn(CC(=O)N3CCOCC3)c2c1)[C@H]1OC(=O)C[C@H](O)CC[C@H](C)[C@@H](OC(=O)N2CCN(C)CC2)/C=C/[C@@H]1C [Compound 130] | 43.9 nM | 30 nM | 37.1 nM | 12 nM | −72.458% | −93.452% | 18.3 nM |  |  |  |  |  |  |  |  | 
13 | C/C(=C\c1cc(F)cc(N2CCN(CC(=O)C3CC3)CC2)c1)[C@H]1OC(=O)C[C@H](O)CC[C@H](C)[C@@H](OC(=O)N2CCN(C)CC2)/C=C/[C@@H]1C [Compound 84] | 29.6 nM | 22.1 nM | 2.75 nM | 4.3 nM | −80.428% | −89.010% | 5.61 nM |  |  |  |  |  |  |  |  | 
14 | C/C(=C\c1cccc(COC(=O)N2CC[C@@H](O)C2)c1)[C@H]1OC(=O)C[C@H](O)CC[C@H](C)[C@@H](OC(=O)N2CCN(C)CC2)/C=C/[C@@H]1C [Compound 254, [(2S,3S,4E,6R,7S,10R)-10-hydroxy-2-[(E)-1-[3-[[(3R)-3-hydroxypyrrolidine-1-carbonyl]oxymethyl]phenyl]prop-1-en-2-yl]-3,7-dimethyl-12-oxo-1-oxacyclododec-4-en-6-yl] 4-methylpiperazine-1-carboxylate] | 22000 nM | 52.2 nM | 5.12 nM |  |  |  |  |  |  | 422.058 | −41.424% | 23.7 nM | −77.065% | 29 nM |  | 
15 | C/C(=C\c1cc(F)cc(N(C)C)c1)[C@H]1OC(=O)C[C@H](O)CC[C@H](C)[C@@H](OC(=O)N2CCN(C)CC2)/C=C/[C@@H]1C [Compound 29] | > 25000 nM | 90.7 nM | 5.6 nM | 53.8 nM | −19.404% | −90.429% | 34.7 nM |  |  |  |  |  |  |  |  | 
